Assay results as given in PMC10914731, “Homo-BacPROTAC-induced degradation of ClpC1 as a strategy against drug-resistant mycobacteria” (Nature Communications, 2024).
≈ marks a conversion by molar mass, not a printed value. Where “and” joins values, the source holds several entries; their conditions need not be identical. Identical values can stand only once. Like-named read-outs stand apart in the source and are kept apart here.

Assays:
[1] = target: His6-tagged ClpC1-NTD substrate, M. smegmatis ClpC1P1P2 (UniProt A0R574+P9WPC9); assay: biochemical; type: biochemical
Chain of His6-tagged ClpC1-NTD substrate, M. smegmatis ClpC1P1P2 (P9WPC9 1-156, looked up, natural form): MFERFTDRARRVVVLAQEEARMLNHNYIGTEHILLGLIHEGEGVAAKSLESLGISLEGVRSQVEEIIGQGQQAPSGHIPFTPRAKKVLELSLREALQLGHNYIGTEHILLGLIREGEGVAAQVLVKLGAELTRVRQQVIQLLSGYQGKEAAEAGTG
Chain of His6-tagged ClpC1-NTD substrate, M. smegmatis ClpC1P1P2 (A0R574 whole entry): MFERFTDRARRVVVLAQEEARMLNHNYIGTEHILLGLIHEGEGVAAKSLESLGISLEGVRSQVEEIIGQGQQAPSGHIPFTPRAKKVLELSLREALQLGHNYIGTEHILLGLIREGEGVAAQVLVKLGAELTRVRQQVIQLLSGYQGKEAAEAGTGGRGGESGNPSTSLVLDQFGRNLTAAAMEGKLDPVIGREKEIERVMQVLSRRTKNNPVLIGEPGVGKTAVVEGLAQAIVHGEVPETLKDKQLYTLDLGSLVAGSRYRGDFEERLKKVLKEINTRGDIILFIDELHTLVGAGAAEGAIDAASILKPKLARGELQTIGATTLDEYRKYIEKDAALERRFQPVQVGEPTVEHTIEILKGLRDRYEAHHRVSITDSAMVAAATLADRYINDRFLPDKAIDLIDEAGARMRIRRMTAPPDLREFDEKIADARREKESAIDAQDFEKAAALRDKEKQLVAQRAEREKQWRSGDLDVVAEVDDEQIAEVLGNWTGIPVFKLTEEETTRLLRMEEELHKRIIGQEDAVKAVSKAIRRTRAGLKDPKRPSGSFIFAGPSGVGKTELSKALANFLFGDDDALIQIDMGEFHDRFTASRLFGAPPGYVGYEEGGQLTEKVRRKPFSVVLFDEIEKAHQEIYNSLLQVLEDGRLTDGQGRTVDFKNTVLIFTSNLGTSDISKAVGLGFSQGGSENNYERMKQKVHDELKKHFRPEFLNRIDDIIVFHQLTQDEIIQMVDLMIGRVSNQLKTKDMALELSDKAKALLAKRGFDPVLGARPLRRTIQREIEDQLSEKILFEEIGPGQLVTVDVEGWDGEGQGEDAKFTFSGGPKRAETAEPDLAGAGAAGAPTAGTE

[2] = target: ClpC1-NTD substrate, M. tuberculosis ClpC1P1P2 (Mycobacterium tuberculosis, UniProt P9WPC9); assay: biochemical; type: biochemical
Chain of ClpC1-NTD substrate, M. tuberculosis ClpC1P1P2 (P9WPC5 whole entry): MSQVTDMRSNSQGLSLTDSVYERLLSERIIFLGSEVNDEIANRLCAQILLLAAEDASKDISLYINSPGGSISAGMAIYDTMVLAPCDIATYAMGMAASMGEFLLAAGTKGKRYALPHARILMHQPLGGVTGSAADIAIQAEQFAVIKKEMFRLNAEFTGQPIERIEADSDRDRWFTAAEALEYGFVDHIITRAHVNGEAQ
Chain of ClpC1-NTD substrate, M. tuberculosis ClpC1P1P2 (P9WPC9 whole entry): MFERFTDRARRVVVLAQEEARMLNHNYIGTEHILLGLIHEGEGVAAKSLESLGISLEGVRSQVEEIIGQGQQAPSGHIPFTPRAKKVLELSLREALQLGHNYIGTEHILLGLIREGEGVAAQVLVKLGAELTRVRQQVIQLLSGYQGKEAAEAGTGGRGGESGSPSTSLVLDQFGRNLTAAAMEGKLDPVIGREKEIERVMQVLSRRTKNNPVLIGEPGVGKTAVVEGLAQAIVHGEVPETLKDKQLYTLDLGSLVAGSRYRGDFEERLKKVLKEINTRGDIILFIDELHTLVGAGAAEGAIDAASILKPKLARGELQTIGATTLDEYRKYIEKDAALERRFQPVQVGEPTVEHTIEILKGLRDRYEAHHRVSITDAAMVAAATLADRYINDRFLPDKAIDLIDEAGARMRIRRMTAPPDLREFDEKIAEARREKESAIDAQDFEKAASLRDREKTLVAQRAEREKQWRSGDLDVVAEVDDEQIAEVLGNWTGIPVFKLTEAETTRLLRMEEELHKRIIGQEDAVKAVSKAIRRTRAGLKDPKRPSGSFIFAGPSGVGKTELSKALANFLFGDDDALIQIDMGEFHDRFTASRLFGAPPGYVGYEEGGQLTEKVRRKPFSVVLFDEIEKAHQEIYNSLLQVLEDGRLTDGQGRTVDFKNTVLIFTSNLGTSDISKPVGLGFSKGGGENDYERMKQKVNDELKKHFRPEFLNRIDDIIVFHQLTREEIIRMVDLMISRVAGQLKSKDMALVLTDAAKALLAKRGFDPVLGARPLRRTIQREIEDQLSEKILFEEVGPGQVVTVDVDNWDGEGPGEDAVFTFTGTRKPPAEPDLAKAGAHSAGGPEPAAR
Chain of ClpC1-NTD substrate, M. tuberculosis ClpC1P1P2 (P9WPC3 whole entry, further chain): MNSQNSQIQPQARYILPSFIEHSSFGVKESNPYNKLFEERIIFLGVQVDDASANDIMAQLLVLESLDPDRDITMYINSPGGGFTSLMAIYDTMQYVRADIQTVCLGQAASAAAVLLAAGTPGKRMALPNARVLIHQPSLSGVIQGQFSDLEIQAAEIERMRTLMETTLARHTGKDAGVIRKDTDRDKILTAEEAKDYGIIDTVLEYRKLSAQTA

[3] = target: endogenous ClpC1 in Msm #607 cells (Mycolicibacterium smegmatis, UniProt A0R574); type: cell-based, M. smegmatis
Chain of endogenous ClpC1 in Msm #607 cells (A0R574 whole entry): as the sequence (A0R574 whole entry) above

[4] = target: ClpC1 NTD protein (M. tuberculosis) (Mycobacterium tuberculosis, UniProt P9WPC9); assay: biochemical; type: binding
Chain of ClpC1 NTD protein (M. tuberculosis) (P9WPC9 1-156, looked up, natural form): as the sequence (P9WPC9 1-156, looked up, natural form) above

[5] = in vitro; details: human
Procedure, shortened: (§1)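 Permeability across Caco-2 monolayers was measured in both directions, apical-to-basolateral and basolateral-to-apical, in 10^-6 cm s-1. Efflux ratio = P(B−A)/P(A−B). Intrinsic permeability is the mean of P(A−B) and P(B−A).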

[6] = tested on: Caco-2 monolayers; assay: in vitro; details: human, Caco-2
Procedure, shortened: as §1

[7] = type: in vitro ADME, Mice; details: for Microsomal Stability Mice: clearance in microsomes
Procedure, shortened: (§2)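 Compound at 1 µmol/l incubated with 0.5 mg/ml liver microsomes in 100 mM Tris-HCl pH 7.5, 6.5 mM MgCl2, 1 mM NADPH, 37 °C; acetonitrile-quenched at multiple time points, measured by HPLC-MS/MS. First-order half-lives converted to clearance as %Qh via well-stirred liver model.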

[8] = type: in vitro ADME, Rat; details: for Microsomal Stability Rat: clearance in microsomes
Procedure, shortened: as §2

[9] = Microsomal stability, human; type: in vitro ADME; details: for Microsomal Stability Human: clearance in microsomes
Procedure, shortened: as §2

[10] = Hepatocyte stability, mice; type: in vitro ADME; details: mouse, pH 7.4
Procedure, shortened: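 1 µM cpd (DMSO <0.05% final), cryopreserved hepatocytes ~1e6 cells/mL, 50% serum, pH 7.4, 37 °C/5–10% CO2; up to 6 h, 6 timepoints; ACN quench, HPLC-MS/MS; t1/2 → CL via well-stirred model, % Qh.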

[11] = type: in vitro ADME, Rat; details: rat, pH 7.4
[12] = type: in vitro ADME, Human; details: human, pH 7.4
[13] = tested on: M. tuberculosis H37Rv (ATCC 27294); assay: microbe, parasite or virus in culture; type: cell-based
[14] = tested on: Msm 607; assay: microbe, parasite or virus in culture; type: cell-based
[15] = tested on: Msm 700084; assay: microbe, parasite or virus in culture; type: cell-based
[16] = read-out: DC50, single measurements
[17] = SPR dissociation rate constant, read-out: koff ClpC1-NTD Mean ± SD
[18] = SPR, single independent measurements
[19] = SPR, single independent measurements, read-out: koff ClpC1-NTD
[20] = Caco-2, Caco-2 permeability P (A-B)
[21] = Mycobacterium tuberculosis, Mtb H37Rv (Supplementary Table 2), read-out: MIC Mtb
[22] = Mycobacterium tuberculosis, single determinations, read-out: Mtb MIC
[23] = Mycolicibacterium smegmatis, 607, read-out: MIC Msm 607
[24] = Mycolicibacterium smegmatis, 607, read-out: Msm 607 MIC, single determinations
[25] = Mycolicibacterium smegmatis, 700084, single determinations, read-out: Msm 700084 MIC
[26] = Mycolicibacterium smegmatis, 700084, read-out: MIC Msm 700084
[27] = Msm, Measurement 1-6, read-out: 1-Dmax, single measurements
[28] = Msm, mean of the measurements, read-out: 1-Dmax, Mean
[29] = Msm, mean of the measurements, read-out: DC50, Mean
[30] = Mtb, Measurement 1-4, read-out: 1-Dmax, single measurements
[31] = Mtb, mean of the measurements, read-out: 1-Dmax, Mean
[32] = Mtb, mean of the measurements, read-out: DC50, Mean

In the case of CO[C@@H](c1ccccc1)[C@H]1NC(=O)[C@@H](C)NC(=O)[C@@H](C[C@H](C)CO)N(C)C(=O)[C@@H](Cc2cn(C)c3ccccc23)NC(=O)[C@@H](Cc2cn(CCCCCn3cc(C[C@H]4NC(=O)[C@@H](CC(C)C)N(C)C(=O)[C@@H](C(C)C)NC(=O)[C@@H]([C@@H](OC)c5ccccc5)NC(=O)[C@@H](C)NC(=O)[C@@H](C[C@H](C)CO)N(C)C(=O)[C@@H](Cc5cn(C)c6ccccc56)NC4=O)nn3)nn2)NC(=O)[C@@H](CC(C)C)N(C)C(=O)[C@@H](C(C)C)NC1=O [Compound 12a], the “degradation of the His6-tagged ClpC1-NTD substrate” value [1] is reported as “did not cause any degradation”, the DC50 ([1]; read-out: DC50, Mean) is reported as over 100 µM and the DC50 [1, 16] is reported as over 100 µM. For the same compound, the DC50 ([2]; read-out: DC50, Mean) was over 100 µM, the DC50 [2, 16] was over 100 µM and the “intracellular degradation of ClpC1” value [3] was “inactive”.
In the case of CO[C@H](c1ccccc1)[C@@H]1NC(=O)[C@H](C)NC(=O)[C@H](C[C@@H](C)CO)N(C)C(=O)[C@H](Cc2cn(Cc3cn(CCOCCOCCOCCOCCn4cc(Cn5cc(C[C@H]6C(=O)N(C)[C@@H](C[C@@H](C)CO)C(=O)N[C@@H](C)C(=O)N[C@@H]([C@H](OC)c7ccccc7)C(=O)N[C@@H](C(C)C)C(=O)N(C)[C@@H](CC(C)C)C(=O)N[C@@H](C(C)C)C(=O)N6C)c6ccccc65)nn4)nn3)c3ccccc23)N(C)C(=O)[C@H](C(C)C)NC(=O)[C@H](CC(C)C)N(C)C(=O)[C@H](C(C)C)NC1=O [Compound 27], the koff [4, 17] is reported as 0.002 s⁻¹, the Kd ([4]; SPR, individual measurements (source data), read-out: KD ClpC1-NTD) is reported as 0.0003 µM and 0.000576 µM and the “koff ClpC1-NTD” value [4, 18] is reported as 2E-3 2E-3 1/s. The koff [4, 19] was 0.002 s⁻¹, the Kd ([4]; SPR, read-out: ClpC1-NTD KD Mean ± SD) was 0.0004 ± 0.0002 µM and the Papp A→B [5, 20] was under 6.4 ×10⁻⁶ cm/s. The Papp B→A ([5]; Caco-2, Caco-2 permeability P (B-A)) was under 1.7 ×10⁻⁶ cm/s, the “Caco-2 Int. Perm” value [6] was 4.1 and the “Microsomal Stability Mouse QH” value [7] was 77.100%. For the same compound, the “Microsomal Stability Mice” value [7] was 77 %Qh, the “Microsomal Stability Rat QH” value [8] was 41.300% and the “Microsomal Stability Rat” value [8] was 41 %Qh. The “Microsomal Stability Human QH” value [9] was over 88.400%, the “Microsomal Stability Human” value [9] was over 88 %Qh and the “Hepatocyte Mice” value [10] was 15 %Qh. The “Hepatocyte Rat” value [11] was 6 %Qh, the “Hepatocyte Stability Rat QH” value [11] was 6.192% and the “Hepatocyte Human” value [12] was 12 %Qh. The “Hepatocyte Stability Human QH” value [12] was 12.386%, the MIC ([13]; Mycobacterium tuberculosis, M. tuberculosis H37Rv strain, read-out: MIC Mtb H37Rv Mean ± SD) was under 0.1 µM and the MIC [13, 21] was under 0.1 µM. For the same compound, the MIC ([13]; Mycobacterium tuberculosis, individual measurements (source data), read-out: Mtb MIC) was under 0.1 µM, the MIC [13, 22] was under 0.1 µM and the MIC [14, 23] was 1.6 µM (≈ 3.52 µg/mL). The MIC [14, 24] was 1.56 µM (≈ 3.43 µg/mL), the MIC [15, 25] was 0.78 µM (≈ 1.72 µg/mL) and the MIC [15, 26] was 0.8 µM (≈ 1.76 µg/mL). For the same compound, the “1-Dmax, single measurements” value ([1]; Msm, Measurement 1-6) was 93.8% and 90.4%, the 1-Dmax (percent substrate remaining at maximal degradation) [1, 27] was 89.3% and the 1-Dmax (percent substrate remaining at maximal degradation) [1, 28] was 91%. For the same compound, the DC50 [1, 29] was 12.5 µM, the “1-Dmax, single measurements” value ([2]; Mtb, Measurement 1-4) was 70.9% and 71.4% and 79.4% and the 1-Dmax (percent substrate remaining at maximal degradation) [2, 30] was 75.3%. It also gave a 1-Dmax (percent substrate remaining at maximal degradation) [2, 31] of 74% and a DC50 [2, 32] of 24.7 µM.
In the case of CO[C@H](c1ccccc1)[C@@H]1NC(=O)[C@H](C)NC(=O)[C@H](C[C@@H](C)CO)N(C)C(=O)[C@H](Cc2cn(Cc3cn(CCCCCn4cc(Cn5cc(C[C@@H]6NC(=O)[C@H](C(C)C)NC(=O)[C@H](CC(C)C)N(C)C(=O)[C@H](C(C)C)NC(=O)[C@H]([C@H](OC)c7ccccc7)NC(=O)[C@H](C)NC(=O)[C@H](C[C@@H](C)CO)N(C)C6=O)c6ccccc65)nn4)nn3)c3ccccc23)NC(=O)[C@H](C(C)C)NC(=O)[C@H](CC(C)C)N(C)C(=O)[C@H](C(C)C)NC1=O [Compound 9], the Kd ([4]; SPR (Supplementary Table 1), read-out: KD ClpC1-NTD Mean ± SD) is reported as 0.0006 ± 0.0002 µM, the koff [4, 17] is reported as 0.0005 s⁻¹ and the “koff ClpC1-NTD” value [4, 18] is reported as 0.0005 s⁻¹ and 0.0006 s⁻¹. The Kd ([4]; SPR, single independent measurements, read-out: KD ClpC1-NTD) was 0.000453 µM and 0.000515 µM and 0.000745 µM, the koff [4, 19] was 0.0005 s⁻¹ and the Papp A→B ([5]; Caco-2, CACO permeability PEAB) was under 1.2 ×10⁻⁶ cm/s. For the same compound, the Papp B→A ([5]; Caco-2, CACO permeability PEBA) was under 0.28 ×10⁻⁶ cm/s, the Papp A→B [5, 20] was under 0.2 ×10⁻⁶ cm/s and the “Caco-2 Int. Perm” value [6] was 0.1. The “Caco-2 permeability P (B-A)” value [6] was 0, the “Microsomal Stability Mouse QH” value [7] was 24.7% and the “Microsomal Stability Mice” value [7] was 25 %Qh. For the same compound, the “Microsomal Stability Rat QH” value [8] was under 23.100%, the “Microsomal Stability Rat” value [8] was under 23 %Qh and the “Microsomal Stability Human QH” value [9] was 43.3%. The “Microsomal Stability Human” value [9] was 43 %Qh, the “Hepatocyte Mice” value [10] was 15 %Qh and the “Hepatocyte Stability Mouse QH” value [10] was 15.001%. The “Hepatocyte Rat” value [11] was 6 %Qh, the “Hepatocyte Stability Rat QH” value [11] was 6.192% and the “Hepatocyte Human” value [12] was 12 %Qh. For the same compound, the “Hepatocyte Stability Human QH” value [12] was 12.386%, the MIC [13, 21] was 0.3 ± 0.1 µM (≈ 0.611 µg/mL) and the MIC [13, 22] was 0.39 µM (≈ 0.794 µg/mL). For the same compound, the MIC ([13]; single determinations, read-out: Mtb MIC) was 0.195 µM (≈ 0.397 µg/mL), the MIC [14, 23] was 0.8 µM (≈ 1.63 µg/mL) and the MIC [14, 24] was 0.78 µM (≈ 1.59 µg/mL). For the same compound, the MIC [15, 25] was over 50 µM, the MIC [15, 26] was over 50 µM and the “1-Dmax, single measurements” value ([1]; Msm, Measurement 1-6) was 54.4% and 51.4%. The 1-Dmax (percent substrate remaining at maximal degradation) [1, 27] was 54.7%, the DC50 ([1]; Msm, Measurement 1-6, read-out: DC50, single measurements) was 7.8 µM and 9.2 µM and 6.9 µM and the 1-Dmax (percent substrate remaining at maximal degradation) [1, 28] was 54%. The DC50 [1, 29] was 8 µM, the “1-Dmax, single measurements” value ([2]; Mtb, Measurement 1-4) was 29.9% and 20.5% and the 1-Dmax (percent substrate remaining at maximal degradation) [2, 30] was 27.5%. The DC50 ([2]; Mtb, Measurement 1-4, read-out: DC50, single measurements) was 7.2 µM and 8.7 µM and 4.4 µM, the 1-Dmax (percent substrate remaining at maximal degradation) [2, 31] was 26% and the DC50 [2, 32] was 6.8 µM.
